Measurements as given in patent US11001564B2, “Substituted chromane-8-carboxamide compounds and analogues thereof, and methods using same” (priority 2016, dated 2021).
Counter-ions that a name gives are not always drawn. Like-named read-outs stand apart in the source and are kept apart here.

Test system: HBV rcDNA in HepDE19 cells
Assay: HepDE19 assay with bDNA quantitation of HBV rcDNA
Assay type: cell-based, hepatitis B virus (HBV)
Details: Hepatitis B virus, HepDE19, 168 h
Procedure: HepDE19 Assay with bDNA Quantitation of HBV rcDNA:
HepDE19 cell culture system is a HepG2 (human hepatocarcinoma) derived cell line that supports HBV DNA replication and cccDNA formation in a tetracycline (Tet)-regulated manner and produces HBV rcDNA and a detectable reporter molecule dependent on the production and maintenance of cccDNA (Guo, et al., 2007, J. Virol. 81:12472-12484).
HepDE19 (50,000 cells/well) were plated in 96 well collagen-coated tissue-culture treated microtiter plates in DMEM/F12 medium supplemented with 10% fetal bovine serum, 1% penicillin-streptomycin and 1 μg/mL tetracycline and incubated in a humidified incubator at 37° C. and 5% CO2 overnight. Next day, the cells were switched to fresh medium without tetracycline and incubated for 4 hours at 37° C. and 5% CO2. The cells were treated with fresh Tet-free medium with compounds at concentrations starting at 25 μM and a serial, ½ log, 8-point, titration series in duplicate. The final DMSO concentration in the assay was 0.5%. The plates were incubated for 7 days in a humidified incubator at 37° C. and 5% CO2. Following a 7 day-incubation, the level of rcDNA present in the inhibitor-treated wells was measured using a Quantigene 2.0 bDNA assay kit (Affymetrix, Santa Clara, Calif.) with HBV specific custom probe set and manufacturers instructions. Concurrently, the effect of compounds on cell viability was assessed using replicate plates, plated at a density of 5,000 cells/well and incubated for 4 days, to determine the ATP content as a measure of cell viability using the cell-titer glo reagent (CTG; Promega Corporation, Madison, Wis.) as per manufacturer's instructions. The plates were read using a Victor luminescence plate reader (PerkinElmer Model 1420 Multilabel counter) and the relative luminescence units (RLU) data generated from each well was calculated as % inhibition of the untreated control wells and analyzed using XL-Fit module in Microsoft Excel to determine EC50 and EC90 (bDNA) and CC50 (CTG) values using a 4-parameter curve fitting algorithm.
Representative compounds of the invention were tested for their ability to inhibit formation of relaxed circular DNA (rcDNA) in a HepDE19 assay, as described elsewhere herein.

[1] = HepDE19 cells, 7 day incubation, rcDNA by Quantigene 2.0 bDNA assay, read-out: DE-19 bDNA EC50
[2] = read-out: DE-19 bDNA EC50, HepDE19 cells, 7 day incubation, rcDNA by Quantigene 2.0 bDNA assay

SMILES | EC50 [1] [µM] | EC50 [2] [µM]
COC(=O)N[C@H]1CCOc2c(C(=O)Nc3ccc(F)c(C)c3)cccc21 [Compound 50, Methyl (S)-(8-((4-fluoro-3-methylphenyl)carbamoyl)chroman-4-yl)carbamate] | 0.65 | 
O=C(N[C@H]1CCOc2c(C(=O)Nc3ccc(F)c(Cl)c3)cccc21)OCc1ccccn1 [Compound 51, Pyridin-2-ylmethyl (S)-(8-((3-chloro-4-fluorophenyl)carbamoyl)chroman-4-yl)carbamate hydrochloride] |  | 1.2
Cc1cccc(COC(=O)N[C@H]2CCOc3c(C(=O)Nc4ccc(F)c(Cl)c4)cccc32)n1 [Compound 52, (6-Methylpyridin-2-yl)methyl (S)-(8-((3-chloro-4-fluorophenyl)carbamoyl)chroman-4-yl)carbamate] | 1.7 | 
Cc1cccc(COC(=O)N[C@H]2CCOc3c(C(=O)Nc4ccc(F)c(F)c4)cccc32)n1 [Compound 53, (6-Methylpyridin-2-yl)methyl (S)-(8-((3,4-difluorophenyl)carbamoyl)chroman-4-yl)carbamate] | 4.4 | 
COc1ccnc(N[C@H]2CCOc3c(C(=O)Nc4ccc(F)c(F)c4)cccc32)n1 [Compound 54, (S)—N-(3,4-Difluorophenyl)-4-((4-methoxypyrimidin-2-yl)amino)chromane-8-carboxamide] | 4.1 | 
COc1cnc(N[C@H]2CCOc3c(C(=O)Nc4ccc(F)c(F)c4)cccc32)nc1 [Compound 55, (S)—N-(3,4-Difluorophenyl)-4-((5-methoxypyrimidin-2-yl)amino)chromane-8-carboxamide] | 2 | 
O=C(Nc1ccc(F)c(F)c1)c1c(F)ccc2c1OCC[C@@H]2Nc1ncccn1 [Compound 56, (S)—N-(3,4-Difluorophenyl)-7-fluoro-4-(pyrimidin-2-ylamino)chromane-8-carboxamide] | 2.5 | 
Cc1ccnc(N[C@H]2CCOc3c(C(=O)Nc4ccc(F)c(F)c4)cccc32)n1 [Compound 57, (S)—N-(3,4-Difluorophenyl)-4-((4-methylpyrimidin-2-yl)amino)chromane-8-carboxamide] | 3.4 | 
Cc1cnc(N[C@H]2CCOc3c(C(=O)Nc4ccc(F)c(F)c4)cccc32)nc1 [Compound 58, (S)—N-(3,4-Difluorophenyl)-4-((5-methylpyrimidin-2-yl)amino)chromane-8-carboxamide] | 9.7 | 
O=C(N[C@H]1CCOc2c1ccc(F)c2C(=O)Nc1ccc(F)c(F)c1)OCc1ccccn1 [Compound 59, (S)-Pyridin-2-ylmethyl (8-((3,4-difluorophenyl)carbamoyl)-7-fluorochroman-4-yl)carbamate] | 5.3 | 
O=C(Nc1ccc(F)c(F)c1)c1ccc(F)c2c1OCCC2=O [Compound 60, N-(3,4-difluorophenyl)-5-fluoro-4-oxochromane-8-carboxamide] | 3.9 | 
C[C@H](OC(=O)N[C@H]1CCOc2c(C(=O)Nc3ccc(F)c(F)c3)cccc21)c1ccccn1 [Compound 61, (S)-1-(Pyridin-2-yl)ethyl ((S)-8-((3,4-difluorophenyl)carbamoyl)chroman-4-yl)carbamate hydrochloride] |  | 4
O=C(Nc1ccc(F)c(F)c1)c1cccc2c1OCCC2c1ccccc1 (centres unmarked) [Compound 62, N-(3,4-difluorophenyl)-4-phenylchromane-8-carboxamide] | 4.9 | 
O=C(Nc1ccc(F)c(F)c1)c1cccc2c1OCCC2c1cccnc1 (centres unmarked) [Compound 63, N-(3,4-difluorophenyl)-4-(pyridin-3-yl)chromane-8-carboxamide] | 14 | 
O=C1CCOc2c1ccc(F)c2C(=O)Nc1ccc(F)c(F)c1 [Compound 64, N-(3,4-difluorophenyl)-7-fluoro-4-oxochromane-8-carboxamide] | 3.8 | 
O=C1CCOc2c1ccc(F)c2C(=O)Nc1ccc(F)c(Cl)c1 [Compound 65, N-(3-chloro-4-fluorophenyl)-7-fluoro-4-oxochromane-8-carboxamide] | 4.1 | 
O=C(N[C@H]1CCOc2c(C(=O)Nc3ccc(F)c(F)c3)cccc21)OCc1ccncn1 [Compound 66, Pyrimidin-4-ylmethyl (S)-(8-((3,4-difluorophenyl)carbamoyl)chroman-4-yl)carbamate] | 3.5 | 
O=C(Nc1ccc(F)c(F)c1)c1cccc2c1OCC[C@@H]2Nc1ccncn1 [Compound 67, (S)—N-(3,4-Difluorophenyl)-4-(pyrimidin-4-ylamino)chromane-8-carboxamide] | 3.6 | 

SMILES | EC50 [1] [µM] | EC50 [2] [µM]
O=C(Nc1ccc(F)c(F)c1)c1cccc2c1OCCC2c1ccccn1 (centres unmarked) [Compound 68, N-(3,4-difluorophenyl)-4-(pyridin-2-yl)chromane-8-carboxamide] | 3.4 | 
O=C(Nc1ccc(F)c(F)c1)c1cccc2c1OCCC2c1ncccn1 (centres unmarked) [Compound 71, N-(3,4-difluorophenyl)-4-(pyrimidin-2-yl)chromane-8-carboxamide] | 12 | 
Cn1ccc(COC(=O)N[C@H]2CCOc3c(C(=O)Nc4ccc(F)c(F)c4)cccc32)n1 [Compound 72, (1-Methyl-1H-pyrazol-3-yl)methyl (S)-(8-((3,4-difluorophenyl)carbamoyl)chroman-4-yl)carbamate] | 2 | 
COC(=O)N[C@H]1CCOc2c1ccc(F)c2C(=O)Nc1ccc(F)c(Cl)c1 [Compound 74, (S)-Methyl (8-((3-chloro-4-fluorophenyl)carbamoyl)-7-fluorochroman-4-yl)carbamate] |  | 1.9
CNC(=O)N[C@H]1CCOc2c1ccc(F)c2C(=O)Nc1ccc(F)c(Cl)c1 [Compound 75, (S)—N-(3-Chloro-4-fluorophenyl)-7-fluoro-4-(3-methylureido)chromane-8-carboxamide] |  | 3.2
O=C(N[C@H]1CCOc2c1ccc(F)c2C(=O)Nc1ccc(F)c(Cl)c1)OCc1ccccn1 [Compound 76, (S)-Pyridin-2-ylmethyl (8-((3-chloro-4-fluorophenyl)carbamoyl)-7-fluorochroman-4-yl)carbamate] | 1.9 | 
O=C1CCOc2c1ccc(Cl)c2C(=O)Nc1ccc(F)c(F)c1 [Compound 77, 7-chloro-N-(3,4-difluorophenyl)-4-oxochromane-8-carboxamide] | 23 | 
O=C(Nc1ccc(F)c(F)c1)c1ccc(Cl)c2c1OCCC2=O [Compound 78, 5-chloro-N-(3,4-difluorophenyl)-4-oxochromane-8-carboxamide] | 7.3 | 
O=C(Nc1ccc(F)c(Cl)c1)c1ccc(F)c2c1OCCC2=O [Compound 79, N-(3-chloro-4-fluorophenyl)-5-fluoro-4-oxochromane-8-carboxamide] | 5.3 | 
COc1ccnc(COC(=O)N[C@H]2CCOc3c(C(=O)Nc4ccc(F)c(F)c4)cccc32)c1 [Compound 80, (4-Methoxypyridin-2-yl)methyl (S)-(8-((3,4-difluorophenyl)carbamoyl)chroman-4-yl)carbamate hydrochloride] |  | 2.7
O=C(N[C@H]1CCOc2c(C(=O)Nc3ccc(F)c(F)c3)cccc21)OCc1cnccn1 [Compound 81, Pyrazin-2-ylmethyl (S)-(8-((3,4-difluorophenyl)carbamoyl)chroman-4-yl)carbamate] | 2.4 | 
O=C(N[C@H]1CCOc2c(C(=O)Nc3ccc(F)c(F)c3)cccc21)OCc1cc(Cl)ccn1 [Compound 82, (4-Chloropyridin-2-yl)methyl (S)-(8-((3,4-difluorophenyl)carbamoyl)chroman-4-yl)carbamate hydrochloride] |  | 3.2
COC(=O)N[C@H]1CCOc2c1ccc(Cl)c2C(=O)Nc1ccc(F)c(F)c1 [Compound 83, Methyl (S)-(7-chloro-8-((3,4-difluorophenyl)carbamoyl)chroman-4-yl)carbamate] |  | 5.4
CNC(=O)N[C@H]1CCOc2c1ccc(Cl)c2C(=O)Nc1ccc(F)c(F)c1 [Compound 84, (S)-7-Chloro-N-(3,4-difluorophenyl)-4-(3-methylureido)chromane-8-carboxamide] |  | 11
O=C(N[C@H]1CCOc2c(C(=O)Nc3ccc(F)c(F)c3)cccc21)OCc1ccc(Cl)cn1 [Compound 88, (5-Chloropyridin-2-yl)methyl (S)-(8-((3,4-difluorophenyl)carbamoyl)chroman-4-yl)carbamate hydrochloride] |  | 13
O=C(Nc1ccc(F)c(F)c1)c1ccc(F)c2c1OCC[C@@H]2Nc1ncccn1 [Compound 89, (S)—N-(3,4-Difluorophenyl)-5-fluoro-4-(pyrimidin-2-ylamino)chromane-8-carboxamide] | 1.1 | 
O=C(N[C@H]1CCOc2c1ccc(Cl)c2C(=O)Nc1ccc(F)c(F)c1)OCc1ccccn1 [Compound 90, Pyridin-2-ylmethyl (S)-(7-chloro-8-((3,4-difluorophenyl)carbamoyl)chroman-4-yl)carbamate] | 8.4 | 
